Laboratory results as given in patent publication US4008274A, “Certain salicylanilides” (Yoshitomi Pharmaceutical Industries, Ltd., priority 1973, dated 1977).
Converted amounts (≈) assume the structure as drawn.

Tests used:
[1] = Oral toxicity (Litchfield-Wilcoxon method); conditions: mouse, in vivo, dd-strain female mice, 25% suspension in water containing 0.5% carboxymethylcellulose
Description: Oral LD50 values were determined in dd-strain female mice according to the conventional Litchfield-Wilcoxon method. The test compound was administered as a 25% suspension in water containing 0.5% carboxymethylcellulose.

Percutaneous toxicity = conditions: mouse, in vivo, topical or ocular; dd-strain female mice, 10% solution in acetone on shaved backs
Description: Percutaneous LD50 values were determined in dd-strain female mice by applying a 10% solution of the test compound in acetone on the shaved backs.

Spirogyra = assay: Algicidal Activity; assay type: in vivo; design: key: 0: Brown algae on the bottom of the vessel. Destroyed and brown spiral chloroplasts (under a microscope).; 10: Vigorous algae growth. Vivid green spiral chloroplasts (under a microscope); conditions: 48 hours, 20°±2° C
Description: Tap water (4 liters) was poured into a glass vessel (15 × 20 × 21 cm). The vessel was kept in a greenhouse maintained at 20°±2° C. Then 1 ml (or 5 ml) of a solution prepared by dissolving 0.400 g of the test compound in 100 ml of 4:1 ethanol-acetone mixture was dropped into the vessel to attain the concentration of 1 ppm (or 5 ppm). As the control run, 1 ml (or 5 ml) of the solvent was dropped into the vessel. About 5 g of wet Spirogyra was put in the vessel. Clean air was introduced at a rate of 150 ml/min for 48 hours.
The algicidal acticity was evaluated by the following criteria:
0: Brown algae on the bottom of the vessel. Destroyed and brown spiral chloroplasts (under a microscope).
10: Vigorous algae growth. Vivid green spiral chloroplasts (under a microscope).

[2] = tested on: Bacillus subtilis PCI 219; assay: Antibacterial Activity (agar dilution method), Bacillus subtilis PCI 219; assay type: cell-based; conditions: PCI219, 48 h; Bacillus subtilis PCI 219, nutrient agar, 37° C, 2 days; read-out: minimal inhibitory concentration (MIC)
Description: (§1) The minimal inhibitory concentration (MIC; mcg/ml) of the test compounds determined by the agar dilution method on the nutrient agar medium is shown in TABLE III. The procedure is as follows: The test compound was mixed with the nutrient agar medium and the medium was allowed to coagulate. A solution containing Staphylococcus aureus FDA 2099 or Bacillus subtilis PCI 219 was inoculated into the medium and cultivated at 37° C for 2 days.

[3] = tested on: Staphylococcus aureus FDA 2099; assay: Antibacterial Activity (agar dilution method), Staphylococcus aureus FDA 2099; assay type: cell-based; conditions: FDA2099, 48 h; Staphylococcus aureus FDA 2099, nutrient agar, 37° C, 2 days; read-out: minimal inhibitory concentration (MIC)
Description: as §1

barnacles = assay: Barnacle Killing Activity; assay type: in vivo; conditions: after 48 hours, out of 30 living barnacles, 20°±2° C
Description: Seawater (4 liters) was poured into a glass vessel (15 × 20 × 21 cm). The water temperature was maintained at 20°±2° C. Clean air was introduced at a rate of 150 ml/min throughout the experiment. Then 1 ml (or 5 ml) of a solution prepared by dissolving 0.400 g of the test compound in 100 ml of 4:1 ethanol-acetone mixture was dropped into the vessel to attain the concentration of 1 ppm (or 5 ppm). As the control run, 1 ml (or 5 ml) of the solvent was dropped into the vessel. Of scores of barnacles sticking to a stone obtained from the sea-shore 30 living barnacles were selected at randum, the rest of the barnacles on the stone being neglected for the experiment. Such stone was put in the vessel. After 48 hours, the number of dead barnacles was counted.

Row | SMILES | LD50 [1] [mg/kg] | LD50 (Percutaneous toxicity) [mg/kg] | algicidal activity score (Spirogyra; 1 ppm) | algicidal activity score (Spirogyra; 5 ppm) | MIC [2] [µg/mL] | MIC [3] [µg/mL] | number of dead barnacles (barnacles; 1 ppm) | number of dead barnacles (barnacles; 5 ppm)
1 | Cc1cccc(NC(=O)c2cc(C(C)(C)C)ccc2O)c1C [Test Compound 16, 5-Tert-butyl-2',3'-dimethylsalicylanilide] | > 10000 | > 5000 | – | – | – | – | – | –
2 | Cc1ccc([N+](=O)[O-])cc1NC(=O)c1cc(C(C)(C)C)ccc1O [compound 12] | – | – | 10 | 0 | 2 (≈ 6.09 µM) | 2 (≈ 6.09 µM) | 30 | 30
3 | Cc1ccc(O)c(C(=O)Nc2ccc([N+](=O)[O-])c(C)c2)c1 [Test Compound 2, 3',5-Dimethyl-4'-nitrosalicylanilide] | – | – | 0 | 0 | – | – | 2 | 30
4 | Cc1cc([N+](=O)[O-])ccc1NC(=O)c1cc(C(C)(C)C)ccc1O [Test Compound 10, 5-Tert-butyl-2'-methyl-4'-nitrosalicylanilide] | > 10000 | > 5000 | – | – | – | – | – | –
5 | CCC(C)(C)c1ccc(O)c(C(=O)Nc2ccc([N+](=O)[O-])cc2C)c1 [compound 18] | – | – | 0 | 0 | 0.5 (≈ 1.46 µM) | 0.5 (≈ 1.46 µM) | 30 | 30
6 | CCC(C)(C)c1ccc(O)c(C(=O)Nc2cc([N+](=O)[O-])ccc2C)c1 [compound 20] | – | – | 0 | 0 | 1 (≈ 2.92 µM) | 1 (≈ 2.92 µM) | 30 | 30
7 | COc1ccc(NC(=O)c2cc(C(C)(C)C)ccc2O)cc1 [compound 17] | – | – | 10 | 0 | – | – | – | –
8 | CC(C)(C)c1ccc(O)c(C(=O)Nc2ccc([N+](=O)[O-])cc2)c1 [compound 13] | – | – | – | – | 1 (≈ 3.18 µM) | 2 (≈ 6.36 µM) | 22 | 30
9 | CCC(C)(C)c1ccc(O)c(C(=O)Nc2cccc(SC)c2)c1 [compound 22] | – | – | 10 | 0 | – | – | – | –
10 | CSc1cccc(NC(=O)c2cc(C)ccc2O)c1 [compound 5] | – | – | – | – | – | – | 2 | 18
11 | COc1cc([N+](=O)[O-])ccc1NC(=O)c1cc(C)ccc1O [compound 6] | – | – | – | – | – | – | 2 | 20
12 | COc1cc([N+](=O)[O-])ccc1NC(=O)c1cc(C(C)(C)C)ccc1O [compound 15] | – | – | – | – | – | – | 9 | 30
13 | Cc1ccc([N+](=O)[O-])cc1NC(=O)c1cc(C(C)C)ccc1O [compound 8] | – | – | 10 | 0 | 5 (≈ 15.9 µM) | 5 (≈ 15.9 µM) | 16 | 30
14 | Cc1ccc(O)c(C(=O)Nc2ccc([N+](=O)[O-])cc2C)c1 [Test Compound 1, 2',5-dimethyl-4'-nitrosalicylanilide] | – | – | 0 | 0 | 2 (≈ 6.99 µM) | 5 (≈ 17.5 µM) | 10 | 30
15 | CCC(C)(C)c1ccc(O)c(C(=O)Nc2ccc([N+](=O)[O-])cc2)c1 [compound 21] | – | – | 0 | 0 | 1 (≈ 3.05 µM) | 1 (≈ 3.05 µM) | 25 | 30
16 | CCC(C)(C)c1ccc(O)c(C(=O)Nc2ccc([N+](=O)[O-])c(C)c2)c1 [compound 19] | – | – | 0 | 0 | 0.5 (≈ 1.46 µM) | 0.5 (≈ 1.46 µM) | 2 | 30
17 | CC(C)c1ccc(O)c(C(=O)Nc2ccc([N+](=O)[O-])cc2)c1 [compound 9] | – | – | 0 | 0 | 5 (≈ 16.6 µM) | 5 (≈ 16.6 µM) | 20 | 30
18 | Cc1cc([N+](=O)[O-])ccc1NC(=O)c1cc(C(C)(C)CC(C)(C)C)ccc1O [compound 24] | – | – | – | – | 1 (≈ 2.6 µM) | 1 (≈ 2.6 µM) | – | –
19 | CCC(C)(C)c1ccc(O)c(C(=O)Nc2ccc([N+](=O)[O-])cc2OC)c1 [compound 23] | – | – | 0 | 0 | 5 (≈ 14 µM) | 5 (≈ 14 µM) | 6 | 30
20 | Cc1cccc(NC(=O)c2cc(C(C)(C)C)ccc2O)c1C [compound 16] | – | – | 10 | 0 | – | – | 4 | 30
21 | Cc1cc([N+](=O)[O-])ccc1NC(=O)c1cc(C(C)(C)C)ccc1O [compound 10] | – | – | 0 | 0 | 0.5 (≈ 1.52 µM) | 1 (≈ 3.05 µM) | 30 | 30
22 | O=C(Nc1ccc(Br)cc1)c1cc(Br)cc(Br)c1O [Tribromsalan, 3,4',5-Tribromosalicylanilide, reference compound] | 124 | > 2000 | – | – | – | – | – | –
23 | Cc1ccc(O)c(C(=O)Nc2ccc([N+](=O)[O-])cc2)c1 [compound 4] | – | – | 10 | 0 | – | – | – | –
24 | CSc1cccc(NC(=O)c2cc(C(C)(C)C)ccc2O)c1 [compound 14] | – | – | 10 | 0 | 5 (≈ 15.9 µM) | 5 (≈ 15.9 µM) | 3 | 30
25 | Cc1cc([N+](=O)[O-])ccc1NC(=O)c1cc(C(C)C)ccc1O [compound 7] | – | – | 0 | 0 | 5 (≈ 15.9 µM) | 5 (≈ 15.9 µM) | 14 | 30
26 | Cc1ccc(O)c(C(=O)Nc2cc([N+](=O)[O-])ccc2C)c1 [compound 3] | – | – | – | – | 10 (≈ 34.9 µM) | 10 (≈ 34.9 µM) | 3 | 30
27 | Cc1cc(NC(=O)c2cc(C(C)(C)C)ccc2O)ccc1[N+](=O)[O-] [compound 11] | – | – | 10 | 0 | 1 (≈ 3.05 µM) | 1 (≈ 3.05 µM) | 30 | 30
